The structures appear in SMILES notation. Read-outs that look alike come from different tables or passages of the source. Bounds are passed on as bounds.

Consider nine compounds from US4833268A, “Threo-adrenalinecarboxylic acid, and the production and uses thereof” (Zaidan Hojin Biseibutsu Kagaku Kenkyu Kai, priority 1982, dated 1989).

Data set [1] concerns reserpine-induced decrease in the body temperature and muscular rigidity. Kind of data set: Test 3: reserpine-induced decrease in body temperature and muscular rigidity (reserpine 2.5 mg/kg s.c.). It is filed as in vivo, ddY-strain mice. Particulars: for Body Temperature (°C.) (Average ± Standard deviation) 24 Hours after administration of reserpine: 800 mg/kg group, 24 hours after reserpine 2.5 mg/kg s.c., before test compound; for Body Temperature (°C.) (Average ± Standard deviation) 1 Hour after administration of adrenaline carboxylic acid / Muscular Rigidity: number of mice exhibiting significant improvement in the muscular rigidity per the total number of mice in each group: given 24 hours after reserpine 2.5 mg/kg s.c.; for Body Temperature (°C.) (Average ± Standard deviation) Before administration of reserpine: baseline of the 800 mg/kg group, before reserpine and before test compound. The procedure: After this, 800 mg/kg of L-threo-adrenalinecarboxylic acid or 800 mg/kg of D-threo-adrenalinecarboxylic acid or DL-threo-adrenalinecarboxylic acid synthetized according to this invention was intraperitoneally administered to the mice having received reserpine. One hour after the administration of the threo-adrenalinecarboxylic acid, the body temperature of the treated mice was determined. Estimation was also made about whether the muscular rigidity as induced by reserpine was improved by the administration of the threo-adrenalinecarboxylic acid of this invention.

Data set [2] is described as follows: Test 7: in vitro decarboxylation by supernatant of mouse whole brain homogenate. Particulars: mouse, brain homogenate supernatant, pH 8. Here is the method:
(§1) The whole brains of mice of ddY-strain were homogenized and the resulting brain homogenate was diluted with the same volume of a buffere solution (comprising 50 mM Tris-HCl (pH 8.6, 1.5 mM EDTA.2Na); 0.5 mM Pridoxal-5-Phosphate; 1 mM Nialamide; and 0.85 mM L-ascorbic acid), and the mixture was centrifuged at 10,000 g to give a supernatant liquid containing the brain enzymes. To this supernatant liquid (500 μl) was added a solution containing 4.5 mM of a substrate selected from L-threo-adrenalinecarboxylic acid, L-threo-DOPS and L-DOPA. The mixture obtained (pH ca. 8, 1.0 ml) was incubated for 30 minutes at 37° C., followed by quantitative determination of adrenaline, noradrenaline or dopamine formed as the reaction product catecholamine.
(§2) The determination of the catecholamine as produced (adrenaline, noradrenaline or […]) was made according to the following procedure: Thus, the incubated mixture was admixed with aqueous 6% perchloric acid (PCA) for stopping the enzymatic reactions, and the reaction solution so obtained was de-salted by adding thereto potassium carbonate to precipitate the potassium perchlorate, and removing the precipitate by filtration. The de-salted reaction solution was passed through a column of Amberlite CG-50 as developed with 250 μl of 2N-PCA solution and then with 250μl of water. The eluate was analyzed by a high performance liquid chromatography under the following conditions:
(§3) Mobile Phase: 0.1M Citrate buffer (pH 4.3)-methanol(9:1) containing 0.0025M 1-octane sulfonic acid sodium salt
(§4) Column temperature: 40° C.
(§5) Applied voltage: 600 mV vs. Ag/AgCl.
(§6) The yield of the catecholamine as formed was calculated in term of percentages based on the quantity of the substrate charged, and this calculated yield denotes the rate of decarboxylation of the substrate compound (in %).

The subject of data set [3] is brain enzymes (homogenate of the whole brains of mice). The data set is described as above. Here is the method:
as §1, §2, §3, §4, §5, §6

Data set [4] in a line: Test 6: brain concentration of 14C-labelled compound after intravenous administration. It is filed as in vivo, C57 Black-strain mice. Particulars: administered intraperitoneally or intravenously in mice.
Description: After a last injection of heparin, the treated mice were anesthetized with ethylether and the breast opened surgically. The blood was withdrawn from the heart and the lower portion of the heart ventricle was cut off. A catheter was inserted at the ventricle into the artery and fixed by means of binding threads. The two veins at the neck were opened surgically, and immediately physiological saline was injected through said catheter so that the remaining blood was entirely withdrawn at the opened veins together with the washing saline. The whole brain was removed from the sacrificed mouse, and the whole brain was dried in air at ambient temperature overnight.
The conditions of data set [5]: cited from earlier work; for accumulation of noradrenaline in brain: after intraperitoneal administration, rats; for decarboxylation in vivo, leading to accumulation of noradrenaline in heart: intraperitoneally administered in rats; for levels of noradrenaline in heart and brain: intraperitoneal administration of high dosages.
Data set [6] is described as follows: Test 4: acute toxicity. Particulars: i.p., 0.5 ml per mouse of 20 mg/ml suspension in 0.5% CMC. Here is the method:
This test is carried out to examine acute toxicity of the DL-threo-adrenalinecarboxylic acid.
To DDB4-strain mice (male, body weight 23-28 g, six in each group) was intraperitoneally administered at a dosage of 0.5 ml per mouse a suspension containing 20 mg/ml of DL-threo-adrenalinecarboxylic acid dispersed in an aqueous solution of 0.5% carboxymethylcellulose (CMC). The mice were then raised under normal conditions for 7 days after the administration of the compound. During these 7 days, the mice were observed and estimated with regard to their body weight, the quantity of feedstock and the quantity of water which were taken by the mice.

Data set [7] is classed as in vivo, mice. Particulars: 500 mg/kg i.p., whole brain 90 minutes after administration.
Data set [8] relates to harmaline-induced tremor. The data set can be described thus: Test 1: inhibitory activity against harmaline-induced tremor. It is filed as in vivo, ddY-strain mice. Particulars: for Reduction (%) in the duration of tremor action: 30 minutes before harmaline 10 mg/kg i.p., relative to harmaline-only control. Here is the method:
This test was made according to one usual method for screening antiparkinsonian drugs which determines inhibitory activity against harmaline-induced tremor.
ddY-strain Mice (male, body weight 20-30 g, five in each group) were used as test animal for respective tests. The new compound, DL-threo-adrenalinecarboxylic acid according to this invention, was intraperitoneally administered to each of the mice at a dosage of 400 mg/kg or […], and after the lapse of 30 minutes harmaline was also intrapenitoneally injected to the same mice at a dosage of 10 mg/kg. Then, the duration of tremor action as induced in the mice under test was observed and recorded. The rate (percentage) of reduction in the duration of tremor action in relation to the control group of mice to which only harmaline was administered in the same dosage was calculated by the equation given below. By way of comparison DL-threo-3-(3,4-dihydroxyphenyl)serine (i.e. DL-threo-DOPS) in a dosage of 400 mg/kg was tested in the same manner as above. [formula]

Data set [9] concerns reserpine-induced decrease in the body temperature. The data set can be described thus: Test 2: inhibition of reserpine-induced decrease in body temperature (reserpine 4 mg/kg i.p.). In kind it is in vivo, ddY-strain mice. Particulars: for Body Temperature (°C.) 1 Hour after / Body Temperature (°C.) 2 Hours after: given 24 hours after reserpine 4 mg/kg i.p. The procedure: ddY-strain Mice (male, body weight 20-30 g, five in each group) were used as the test animal for respective tests. Reserpine was intraperitoneally administered to each mouse at a dose of 4 mg/kg. 24 Hours later, the decreased body temperature of the mice was observed and recorded. After this, 1500 mg/kg or 2000 mg/kg of DL-threo-adrenalinecarboxylic acid was intraperitoneally administered to each of the mice having received reserpine. At the end of 1 hour and at the end of 2 hours after the administration of the DL-threo-adrenalinecarboxylic acid, the body temperature of these treated mice was determined and shown in Table 3 below.

Turning to `CN[C@H](C(=O)O)[C@H](O)c1ccc(O)c(O)c1` [L-threo-adrenalinecarboxylic acid, L-threo-3-(3,4-dihydroxyphenyl)-N-methylserine], in data set [1], the “Body Temperature (°C.) (Average ± Standard deviation) 24 Hours after administration of reserpine” value amounted to 35.4 ± 0.4 °C and the “Body Temperature (°C.) (Average ± Standard deviation) Before administration of reserpine” value was found to be 39.0 ± 0.2 °C. In data set [1] (800 mg/kg i.p.), the “effect on reserpine-induced decrease in body temperature, in words” value is “remarkably inhibits the reserpine-induced decrease in the body temperature”; the “effect on reserpine-induced muscular rigidity, in words” value is reported as “remarkably improves (eliminates or weakens) the muscular rigidity”; the “Body Temperature (°C.) (Average ± Standard deviation) 1 Hour after administration of adrenaline carboxylic acid” value was 38.7 ± 0.5 °C; the “Muscular Rigidity: number of mice exhibiting significant improvement in the muscular rigidity per the total number of mice in each group” value was 5/5. Further, in data set [2], the metabolised at 0.5 h, 4500 µM was < 0.00031%. Moreover, the “decarboxylation in vitro by homogenate of whole brains of mice, in words” value in data set [3] (in vitro, mouse whole brain homogenate) is “can hardly be decarboxylated into adrenaline”. In addition, the “penetration through the blood-brain barrier, in words” value in data set [4] was “can surprisingly penetrate and transfer through the blood-brain barrier into the brain”.

As for `N[C@H](C(=O)O)[C@H](O)c1ccc(O)c(O)c1` [L-threo-DOPS, L-threo-3-(3,4-dihydroxyphenyl)serine], in data set [5] (after direct injection into a cerebral ventricle), the “accumulation of natural (l)-noradrenaline in the brain” value is listed as “marked”. For the same compound, in [5], the “accumulation of noradrenaline in brain” value is reported as “negligible” and the “decarboxylation in vivo, leading to accumulation of noradrenaline in heart” value is reported as “readily decarboxylated in vivo”. The metabolised at 0.5 h, 4500 µM in data set [2] was > 0.52%. Moreover, in [3], the “decarboxylation in vitro by homogenate of whole brains of mice, in words” value is recorded as “can be decarboxylated into noradrenaline”.

Turning to `N[C@@H](C(=O)O)[C@H](O)c1ccc(O)c(O)c1` [D-erythro-DOPS], in data set [5], the “levels of noradrenaline in heart and brain” value was “slight increase”.

Take `CN[C@H](C(=O)O)[C@H](O)c1ccc(O)c(O)c1` (relative stereo) [DL-threo-adrenalinecarboxylic acid, DL-threo-3-(3,4-dihydroxyphenyl)-N-methylserine]: in data set [1], the “Body Temperature (°C.) (Average ± Standard deviation) 24 Hours after administration of reserpine” value was 34.9 ± 0.7 °C and the “Body Temperature (°C.) (Average ± Standard deviation) Before administration of reserpine” value amounted to 39.1 ± 0.2 °C. Moreover, in data set [1] (800 mg/kg i.p.), the “Body Temperature (°C.) (Average ± Standard deviation) 1 Hour after administration of adrenaline carboxylic acid” value is 36.9 ± 0.3 °C and the “Muscular Rigidity: number of mice exhibiting significant improvement in the muscular rigidity per the total number of mice in each group” value is reported as 0/5. Besides, the “acute toxicity: body weight, quantity of feedstock and quantity of water taken, treated vs control group” value in [6] (7 days observation) is on record as “No diference could be detected”. The “acute toxicity: anatomical examination, organ weights, bio-chemical tests of blood, tissue-pathological tests, treated vs control group” value in data set [6] (after 7 days) is “no significant difference existed”. Moreover, the “Quantity (as average) of the administered compound present in brain” value in data set [7] came out at 2.0 n mole/g. The “Quantity (as average) of adrenaline in brain” value in data set [7] (not administered: 0.37 n mole/g) was 0.44 n mole/g. The “Reduction (%) in the duration of tremor action” value (shortened to “Reduction (%) in the duration”) in data set [8] (400 mg/kg i.p.) came out at 34%. Besides, the “Reduction (%) in the duration” value in [8] (600 mg/kg i.p.) is 37%. Also, the “reduction in duration of tremor action, comparison in words” value in [8] (i.p., harmaline 10 mg/kg) was “significantly superior to DL-threo-DOPS”. Also, in [9] (1500 mg/kg i.p.), the “Body Temperature (°C.) 1 Hour after” value came to 32.9 °C and the “Body Temperature (°C.) 2 Hours after” value came out at 32.6 °C. In addition, in data set [9] (2000 mg/kg i.p.), the “Body Temperature (°C.) 1 Hour after” value is 34.0 °C and the “Body Temperature (°C.) 2 Hours after” value came out at 32.5 °C. The “effect on reserpine-induced decrease in body temperature, in words” value in data set [9] (1500 or 2000 mg/kg i.p., compared to control mice receiving reserpine only) was “inhibited the reserpine-induced decrease in the body temperature”.

In the case of `N[C@H](C(=O)O)[C@@H](O)c1ccc(O)c(O)c1` [L-erythro-DOPS], in [5], the “accumulation of noradrenaline in brain” value is “significant” and the “decarboxylation in vivo, leading to accumulation of noradrenaline in heart” value is on record as “readily decarboxylated in vivo”.

As to `N[C@@H](C(=O)O)[C@@H](O)c1ccc(O)c(O)c1` [D-threo-DOPS], the “levels of noradrenaline in heart and brain” value in data set [5] was “slight increase”.

Consider `N[C@@H](Cc1ccc(O)c(O)c1)C(=O)O` [L-DOPA, L-3,4-dihydroxyphenylalanine], for which, in data set [2], the metabolised at 0.5 h, 4500 µM is > 11.7%.

`N[C@H](C(=O)O)[C@H](O)c1ccc(O)c(O)c1` (relative stereo) [DL-threo-DOPS, DL-threo-3-(3,4-dihydroxyphenyl)serine, reference compound]: the “Quantity (as average) of the administered compound present in brain” value in data set [7] was “Not detectable”. Also, the “Reduction (%) in the duration” value in data set [8] (400 mg/kg i.p.) amounted to 26%.

Turning to `CN[C@@H](C(=O)O)[C@@H](O)c1ccc(O)c(O)c1` [D-threo-adrenalinecarboxylic acid], in data set [1], the “Body Temperature (°C.) (Average ± Standard deviation) 24 Hours after administration of reserpine” value was determined as 36.0 ± 0.5 °C and the “Body Temperature (°C.) (Average ± Standard deviation) Before administration of reserpine” value came out at 38.9 ± 0.2 °C. In addition, in data set [1] (800 mg/kg i.p.), the “Body Temperature (°C.) (Average ± Standard deviation) 1 Hour after administration of adrenaline carboxylic acid” value turned out to be 35.9 ± 0.5 °C and the “Muscular Rigidity: number of mice exhibiting significant improvement in the muscular rigidity per the total number of mice in each group” value is on record as 0/5.
